According to patent publication US20250282753A1, “COMPOUNDS USEFUL FOR REDUCING URIC ACID” (ATOM BIOSCIENCE AMERICA CORPORATION, priority 2022, published 2025):

Key:
[1] = test system: potassium oxonate-induced hyperuricemic rats; assay: Serum uric acid in potassium oxonate-induced hyperuricemic rats, 3 days of gavage (Example 35); format: in vivo, SD rats
Method: Compound 13 was a light yellow powder, and compounds 38 and 41 are pseudo-white powders, which are triturated with 0.5% CMC-Na just prior to use to prepare a 0.4 mg/mL suspension for gavage.
36 male SD rats weighed approximately 220-240 g after one week of adaptation. […] The drugs in each group were prepared into a corresponding concentration suspension, and the administration volume was 0.5 mL/100 g.
After the rats in each group were purchased and adapted to feeding, they were fasted for 12 h, and, intraperitoneally, injected with⋅ potassium⋅ gxonate at a⋅dose of 300 mg/kg to establish the model. 0.5 h after modeling, each test drug group was gavaged once. The drug was administered continuously for 3 days. On day 3, blood samples was collected from the retro-orbital venous plexus before and 1, 3, and 5 h after potassium oxonate injection. The samples were centrifuged at 3500 rpm for 10 min, and 30 μL of serum was collected to determine the uric acid level at each time point.
The measurement data of each test were expressed as (mean)±standard deviation). The comparison between groups used ANOVA-Dunnett T test to examine the significance. P<0.05 was used as the significance index, and P<0.01 was used as the extremely significant index.

[2] = test system: potassium oxonate-induced hyperuricemic rats; assay: Serum uric acid in potassium oxonate-induced hyperuricemic rats, single gavage (Example 34); format: in vivo, SD rats; conditions: for Uric acid 1 h / Uric acid 3 h / Uric acid 5 h: serum, mean ± SD; for Uric acid 1 h: 1 h after potassium oxonate injection; for Uric acid 3 h: 3 h after potassium oxonate injection; for Uric acid 5 h: 5 h after potassium oxonate injection
Method: 36 male SD rats weighed approximately 200-230 g after one week of adaptation. […] The drugs in each group were prepared into a corresponding concentration suspension, and the administration volume was 0.5 mL/100 g.
After the rats in each group were purchased and adapted to feeding, they were fasted for 12 h, and intraperitoneally injected with potassium oxonate at a dose of 300 mg/kg to establish the model. After 0.5 h of model establishment, each test drug group was gavaged once. Blood was collected from the retro-orbital venous plexus before and 1, 3, and 5 h after potassium oxonate injection. The samples were centrifuged at 3500 rpm for 10 min. 30 μL of serum was collected to determine the uric acid level at each time point.
The measurement data of each test were expressed as (mean)+standard deviation). The comparison between groups used ANOVA-Dunnett T test to examine the significance. P<0.05 was used as the significance index, and P<0.01 was used as the extremely significant index.

[3] = cited from earlier work; for Sudden cardiac death, number of cases / Sudden cardiac death, share of group: per treatment group
[4] = cited from earlier work
[5] = allopurinol used at the maximum dose; cited from earlier work
[6] = Febuxostat group vs allopurinol group

Cc1nc(-c2ccc(OCC(C)C)c(C#N)c2)sc1C(=O)O [Febuxostat, reference compound]
serum uric acid level compared with the model group at the same time point ([1]; 2 mg/kg for 3 days, 1, 3, and 5 h after modeling, P<0.01): significantly reduce | Uric acid 0 h ([1]; serum, 2 mg/kg gavage for 3 days, day 3, 0 h, before potassium oxonate injection, mean ± SD, n=6): 39.2 ± 6.2 µmol/L | Uric acid 1 h ([1]; serum, 2 mg/kg gavage for 3 days, day 3, 1 h after potassium oxonate injection, mean ± SD): 34.4 ± 7.1 µmol/L | Uric acid 3 h ([1]; serum, 2 mg/kg gavage for 3 days, day 3, 3 h after potassium oxonate injection, mean ± SD): 31.2 ± 7.6 µmol/L | Uric acid 5 h ([1]; serum, 2 mg/kg gavage for 3 days, day 3, 5 h after potassium oxonate injection, mean ± SD): 24.7 ± 4.7 µmol/L | serum uric acid level compared with the model group at the same time point ([2]; 1 mg/kg and 2 mg/kg, 1, 3, and 5 h after modeling, P<0.01): significantly reduce | Uric acid 1 h ([2]; 1 mg/kg gavage once): 78.0 ± 17.5 µmol/L | Uric acid 3 h ([2]; 1 mg/kg gavage once): 63.3 ± 13.8 µmol/L | Uric acid 5 h ([2]; 1 mg/kg gavage once): 59.0 ± 9.8 µmol/L | Uric acid 1 h ([2]; 2 mg/kg gavage once): 40.6 ± 10.6 µmol/L | Uric acid 3 h ([2]; 2 mg/kg gavage once): 50.1 ± 10.7 µmol/L | Uric acid 5 h ([2]; 2 mg/kg gavage once): 61.4 ± 7.1 µmol/L | increase in all-cause mortality [3, 6]: 22% | increase in cardiovascular mortality [3, 6]: 34% | all-cause mortality, HR ([3]; Febuxostat vs allopurinol group, 95% CI 1.01-1.47): 1.22 | cardiovascular mortality, HR ([3]; Febuxostat vs allopurinol group, 95% CI 1.03-1.73): 1.34 | overall risk of adverse cardiovascular events, HR ([3]; Febuxostat vs allopurinol group, average of 32 months of treatment, 95% CI 0.87-1.23): 1.03 | Sudden cardiac death, number of cases [3]: 83 cases | Sudden cardiac death, share of group [3]: 2.7%

Pegloticase
patients experiencing severe immune allergic side effects ([4]; human, in vivo, iv): 20-40% | patients reaching the treatment endpoint of below 0.36 mmol/L ([4]; intravenous injection): 47%

Oc1ncnc2[nH]ncc12 [allopurinol]
rate of subjects reaching the treatment endpoint [5]: less than 50% | Sudden cardiac death, number of cases [3]: 56 cases | Sudden cardiac death, share of group [3]: 1.8%
